{
  "source": "paper PMC10374545",
  "about": "“A small molecule inhibitor of PTP1B and PTPN2 enhances T cell anti-tumor immunity” (Nature Communications, 2023)",
  "key": {"PTPN2": {"target": "T1, PTPN2 (Homo sapiens, UniProt P17706)", "T1 construct": "PTPN2, residues 1-387; made in house; host or cells: E. coli BL21(DE3)", "T1 sequence (P17706 1-387 isoform P17706-2)": "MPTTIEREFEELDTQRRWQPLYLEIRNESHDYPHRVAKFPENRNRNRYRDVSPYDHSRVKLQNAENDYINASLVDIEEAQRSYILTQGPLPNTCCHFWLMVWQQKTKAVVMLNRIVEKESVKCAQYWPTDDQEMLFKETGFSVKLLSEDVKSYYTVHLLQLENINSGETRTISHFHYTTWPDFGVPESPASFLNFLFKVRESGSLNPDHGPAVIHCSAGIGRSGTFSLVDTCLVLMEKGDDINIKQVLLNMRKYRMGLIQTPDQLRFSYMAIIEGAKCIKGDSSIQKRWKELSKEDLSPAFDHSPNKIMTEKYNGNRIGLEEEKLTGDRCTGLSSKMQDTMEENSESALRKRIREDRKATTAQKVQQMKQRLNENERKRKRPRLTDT", "experiment": "PTP inhibition assay with DiFMUP substrate (IC50)", "assay_type": "biochemical", "settings": "DiFMUP 10 μM as substrate", "description": "E. coli BL21(DE3) (Novagen) was used as an expression host and the induction of protein expression was carried out in LB media with 1 mM IPTG at 18 °C overnight. Cell pellets were stored at −80 °C for subsequent protein purification.\nProtein purification of PTPs for enzymatic assays was conducted at 4 °C. Frozen cell pellets were lysed by sonication in 40 ml cold lysis buffer (50 mM Tris-HCl, pH 8.0, 150 mM NaCl, 5 mM imidazole, and 1 mM PMSF) per litre cell pellet. Cell lysates were clarified by centrifugation using a Beckman JA-18 rotor for 15 min at 5308 x g. The supernatant was incubated with HisPur Ni-NTA resin (Thermo Scientific) for 2 h and then packed onto a column and washed with 50 resin volume of buffer A (50 mM Tris-HCl, pH 8.0, 500 mM NaCl, 5 mM imidazole). The His-tagged proteins were eluted with Buffer B (50 mM Tris-HCl, pH=8.0, 500 mM NaCl, 300 mM imidazole,). Pooled His-protein-containing fractions were concentrated, loaded onto a HiLoad 26/600 Superdex 75 column (GE Healthcare Biosciences) and eluted with storage buffer (50 mM Tris-HCl, pH 8.0, 150 mM NaCl, 1 mM DTT, 10% glycerol). […] The protein was aliquoted and stored at −80 °C.\n(§1) The PTP kinetic assay was modified from previous reported protocols[73],[74]. […] The fluorescence signal was measured using a CLARIOstar Plus Microplate Spectrophotometer (BMG Labtech) using excitation and emission wavelengths of 340 nm and 450 nm, respectively. […]\n(§2) To determine the mode of inhibition, the reactions were initiated by the addition of enzyme (final concentration for PTP1B and PTPN2 was 0.05 nM) to the reaction mixtures (0.2 ml) containing various concentrations of DiFMUP with different concentrations of the inhibitor. […] The fluorescence signal was measured using a CLARIOstar Plus Microplate Spectrophotometer (BMG Labtech) using excitation and emission wavelength of 340 nm and 450 nm, respectively. […]"}, "PTP1B": {"target": "T2, PTP1B (Homo sapiens, UniProt P18031)", "T2 construct": "PTP1B, residues 1-321; made in house; host or cells: E. coli BL21(DE3)", "T2 sequence (P18031 1-321)": "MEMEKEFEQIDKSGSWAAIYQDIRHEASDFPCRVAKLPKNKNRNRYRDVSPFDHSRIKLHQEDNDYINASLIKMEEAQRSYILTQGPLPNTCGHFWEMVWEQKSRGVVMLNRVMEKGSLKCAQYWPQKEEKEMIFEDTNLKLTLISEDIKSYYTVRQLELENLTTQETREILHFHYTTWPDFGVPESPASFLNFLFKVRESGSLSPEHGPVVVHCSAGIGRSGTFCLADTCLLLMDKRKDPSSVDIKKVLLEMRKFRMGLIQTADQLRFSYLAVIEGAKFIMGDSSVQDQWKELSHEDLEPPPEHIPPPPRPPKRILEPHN", "experiment": "PTP inhibition assay with DiFMUP substrate (IC50)", "assay_type": "biochemical", "description": "Cell pellets were stored at −80 °C for subsequent protein purification.\nProtein purification of PTPs for enzymatic assays was conducted at 4 °C. Frozen cell pellets were lysed by sonication in 40 ml cold lysis buffer (50 mM Tris-HCl, pH 8.0, 150 mM NaCl, 5 mM imidazole, and 1 mM PMSF) per litre cell pellet. […] The supernatant was incubated with HisPur Ni-NTA resin (Thermo Scientific) for 2 h and then packed onto a column and washed with 50 resin volume of buffer A (50 mM Tris-HCl, pH 8.0, 500 mM NaCl, 5 mM imidazole). The His-tagged proteins were eluted with Buffer B (50 mM Tris-HCl, pH=8.0, 500 mM NaCl, 300 mM imidazole,). […]\nas §1, §2"}},
  "data": [
    {"molecule": "CC(C)CCN[C@@H]1CCc2cc(O)c(N3CC(=O)NS3(=O)=O)c(F)c2C1", "note": "[ABBV-CLS-484]", "values": [
      {"measurement": "IC50", "setting": "PTPN2", "result": "1.6 ± 0.06", "unit": "nM"},
      {"measurement": "IC50", "setting": "PTP1B; DiFMUP 10 μM as substrate", "result": "1.84 ± 0.09", "unit": "nM"},
      {"measurement": "IC50 values relative to those of Compound 182", "setting": "PTP1B; PTP1B and PTPN2, same conditions", "result": "approximately 3 fold"}
    ]}
  ]
}
